From patent US7202239B2, “Cyclohexylphenyl carboxamides tocolytic oxytocin receptor antagonists” (Wyeth, priority 2001, dated 2007)

Each molecule was assayed against human vasopressin V1a receptor subtype (Homo sapiens, UniProt P37288) (assay: Vasopressin binding in CHO cell membranes expressing human vasopressin V1a subtype receptors). Details: 100 nM, [3H]Manning ligand.
Text: Vasopressin Binding in Chinese Hamster Ovary Cell Membranes Expressing Human Vasopressin V1a Subtype Receptors
Chinese hamster ovary cells (CHO cells) stably transfected with the human vasopressin V1a subtype receptors were either obtained from Biosignal Inc., 1744 rue Williams, Montreal, Quebec, Canada or obtained from M. Thibonnier, Case Western Reserve University School of Medicine, Cleveland, Ohio. A. Passaging and Amplification of Cells: CHO cells transfected with the human vasopressin V1a subtype receptors obtained from M. Thibonnier (pZeoSV vector) are allowed to grow to confluency (approx. >90%) in T-150 flasks under sterile conditions, in a cell culture medium of F-12 Nutrient Mixture (HAM) with L-glutamine (Gibco Cat. # 11765-054) containing 15 mM HEPES (Gibco Cat. 15630-080), 1% antibiotic/antimycotic (add 5 mL 100×, Gibco Cat. 15240-062 per 500 mL F-12), 250 μg/mL Zeocin (add 1.25 mL of 100 mg/mL Invitrogen R-250-01 per 500 mL F-12) and 10% Fetal Bovine Serum (Qualified, heat inactivated, Gibco Cat. # 16140-063). The medium is removed by aspiration and the cells are washed with 10 mL of Hank's Balanced Salt solution (Gibco Cat. # 14175-095). The salt solution is removed by aspiration and the cells are trypsinized with 5 mL of trypsin-EDTA (0.05% trypsin, 0.53 mM EDTA-4Na, Gibco Cat. # 25300-070) for 1 min. The trypsin is removed by aspiration and the cells dislodged by tapping. Cell Culture medium (eg, 30 mL for 1:30 split) is immediately added and mixed well to inactivate trypsin. 1 mL of detached cells is added to new culture flasks containing fresh cell culture medium (eg, into 25 mL per T-150 flask), and mixed gently. The cells are incubated at 37° C. in 5% CO2. The medium is changed at 3 to 4 days interval (or as appropriate). The cells grow to confluency (approx. >75%–95%) within 7–8 days. All steps are done under sterile conditions. B. Membrane Preparation: The cells are washed twice gently with Hank's Balanced Salt solution (e.g,. use 10 mL per T-150 flask). The excess is removed and the cells are bathed for 15–30 min. in an enzyme-free Cell Dissociation Buffer (e.g. use 8 mL Hank's Based, Gibco Cat. # 13150-016 per T-150 flask) until the cells are loosened. The contents are transferred to centrifuge tubes (50 mL) kept in an ice bath. All subsequent steps are done at 4° C. The tubes are centrifuged at 300×g for 15 min (1380 rpm on SORVAL, Model RT6000D, using rotor for the 50 mL tubes). The supernatant is discarded and the cells suspended in homogeneizing buffer(10 mM Tris-HCl containing 0.25 M sucrose and 1 mM EDTA, pH 7.4) ensuring that the volume of the buffer is about ten times the volume of the cell pellet. The cells are pooled into a centrifuge tube (50 mL) and homogenized with Polytron at setting 6 for 10 sec. The homogenate is transferred into a Potter-Elvjehm homogenizer and homogenized with 3 strokes. The homogenate is centrifuged at 1500× g for 10 min at 4° C. (3100 rpm using SORVAL, model RT6000D, using the rotor for 50 mL tubes). The pellet is discarded. The supernatant is centrifuged at 100,000×g for 60 min. at 4° C. (Beckman L8-80M ultracentrifuge; spin at 37,500 rpm with rotor type 70 Ti for 50 mL tubes; 38,000 rpm with type 80Ti for 15 mL tubes; or 35,800 rpm with rotor type 45Ti). The supernantant is discarded and the pellet suspended in 3 to 4 mL of Tris buffer (50 mM TRIS-HCl, pH 7.4). The protein content is estimated by the Bradford or Lowry method. The volume of the membrane suspension is adjusted with the membrane buffer (50 mM Tris-HCl containing 0.1% BSA and 0.1 mM PMSF) to give 3.0 mg/mL (or as appropriate) of protein. The membranes are aliquoted and stored at −70° C. C. […]

Chain of human vasopressin V1a receptor subtype (P37288 whole entry): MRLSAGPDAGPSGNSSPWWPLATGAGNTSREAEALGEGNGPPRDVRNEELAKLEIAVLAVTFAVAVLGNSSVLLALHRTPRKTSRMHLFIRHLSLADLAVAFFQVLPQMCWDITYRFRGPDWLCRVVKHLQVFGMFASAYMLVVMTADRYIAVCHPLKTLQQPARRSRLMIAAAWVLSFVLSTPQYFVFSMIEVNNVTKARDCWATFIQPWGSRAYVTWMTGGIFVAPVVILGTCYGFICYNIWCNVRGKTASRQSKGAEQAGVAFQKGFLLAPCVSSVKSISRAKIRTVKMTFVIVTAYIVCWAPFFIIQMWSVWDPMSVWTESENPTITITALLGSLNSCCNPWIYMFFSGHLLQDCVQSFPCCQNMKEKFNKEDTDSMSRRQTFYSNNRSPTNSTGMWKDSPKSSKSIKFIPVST

Structure (SMILES)	inhibition at 0.1 µM [%]	V1a % inhibition at 100 nM [%]
CN(C)CCCN1CCN(C(=O)c2ccc3n2Cc2ccccc2N(C(=O)c2ccc(C4CCCCC4)cc2)C3)CC1 [Example 45, [10-(4-Cyclohexyl-benzoyl)-10,11-dihydro-5H-pyrrolo[2,1-c][1,4]benzodiazepin-3-yl]{4-[3-(dimethylamino)propyl]-1-piperazinyl}methanone]	31	–
O=C(NNC(=O)c1ccc2n1Cc1ccccc1N(C(=O)c1ccc(C3CCCCC3)cc1)C2)Nc1ccccc1 [Example 15, 2-{[10-(4-Cyclohexyl-benzoyl)-10,11-dihydro-5H-pyrrolo[2,1-c][1,4]benzodiazepin-3-yl]carbonyl}-N-phenyl-1-hydrazinecarboxamide]	-4	–
CN(C)CCN1CCN(C(=O)c2ccc3n2Cc2ccccc2N(C(=O)c2ccc(C4CCCCC4)cc2)C3)CC1 [Example 41, [10-(4-Cyclohexyl-benzoyl)-10,11-dihydro-5H-pyrrolo[2,1-c][1,4]benzodiazepin-3-yl]{4-[2-(dimethylamino)ethyl]-1-piperazinyl}methanone]	14	–
O=C(NCCc1ccccn1)c1ccc2n1Cc1ccccc1N(C(=O)c1ccc(C3CCCCC3)cc1)C2 [Example 49, 10-(4-Cyclohexyl-benzoyl)-N-[2-(2-pyridinyl)ethyl]-10,11-dihydro-5H-pyrrolo[2,1-c][1,4]benzodiazepine-3-carboxamide]	0	–
O=C(C(=O)N1CCC(N2CCCCC2)CC1)c1ccc2n1Cc1ccccc1N(C(=O)c1ccc(C3CCCCC3)cc1)C2 [Example 31, 1-[1.4′]Bipiperidinyl-1′-yl-2-[10-(4-cyclohexyl-benzoyl)-10,11-dihydro-5H-pyrrolo[2,1-c][1,4]benzodiazepin-3-yl]-ethane-1,2-dione]	–	69
Cc1cccc(C(=O)NNC(=O)c2ccc3n2Cc2ccccc2N(C(=O)c2ccc(C4CCCCC4)cc2)C3)c1 [Example 14, 10-(4-Cyclohexyl-benzoyl)-N′-(3-methyl-benzoyl)-10,11-dihydro-5H-pyrrolo[2,1-c][1,4]benzodiazepine-3-carbonyl-hydrazide]	–	23
CN(C)CCCN(C)C(=O)c1ccc2n1Cc1ccccc1N(C(=O)c1ccc(C3CCCCC3)cc1)C2 [Example 35, 10-(4-Cyclohexyl-benzoyl)-N-[3-(dimethylamino)propyl]N-methyl-10,11-dihydro-5H-pyrrolo[2,1-c][1,4]benzodiazepine-3-carboxamide]	12	–
O=C(NCc1cccnc1)c1ccc2n1Cc1ccccc1N(C(=O)c1ccc(C3CCCCC3)cc1)C2 [Example 51, 10-(4-Cyclohexyl-benzoyl)-N-(3-pyridinylmethyl)-10,11-dihydro-5H-pyrrolo [2,1-c][1,4]benzodiazepine-3-carboxamide]	-1	–
CN(CCc1ccccn1)C(=O)c1ccc2n1Cc1ccccc1N(C(=O)c1ccc(C3CCCCC3)cc1)C2 [Example 52, 10-(4-Cyclohexyl-benzoyl)-N-methyl-N-[2-(2-pyridinyl)-ethyl]-10,11-dihydro-5H-pyrrolo[2,1-c][1,4]benzodiazepine-3-carboxamide]	19	–
CN1CCC(N(C)C(=O)c2ccc3n2Cc2ccccc2N(C(=O)c2ccc(C4CCCCC4)cc2)C3)CC1 [Example 39, 10-(4-Cyclohexyl-benzoyl)-N-methyl-N-(1-methyl-4-piperidinyl)-10,11-dihydro-5H-pyrrolo[2,1-c][1,4]benzodiazepine-3-carboxamide]	43	–
CN1CCC(N(C)C(=O)c2ccc3n2Cc2ccccc2N(C(=O)c2ccc(C4CCCCC4)cc2)C3)C1 (stereo not shown) [Example 40, 10-(4-Cyclohexyl-benzoyl)-N-methyl-N-(1-methyl-3-pyrrolidinyl)-10,11-dihydro-5H-pyrrolo[2,1-c][1,4]benzodiazepine-3-carboxamide]	22	–
CN(CCc1ccncc1)C(=O)c1ccc2n1Cc1ccccc1N(C(=O)c1ccc(C3CCCCC3)cc1)C2 [Example 55, 10-(4-Cyclohexyl-benzoyl)-N-methyl-N-[2(4-pyridinyl)ethyl]-10,11-dihydro-5H-pyrrolo[2,1-c][1,4]benzodiazepine-3-carboxamide]	50	–
O=C(NCc1ccncc1)c1ccc2n1Cc1ccccc1N(C(=O)c1ccc(C3CCCCC3)cc1)C2 [Example 53, 10-(4-Cyclohexyl-benzoyl)-N-(4-pyridinylmethyl)-10,11-dihydro-5H-pyrrolo[2,1-c][1,4]benzodiazepine-3-carboxamide]	20	–
CN1CCN(C(=O)C(=O)c2ccc3n2Cc2ccccc2N(C(=O)c2ccc(C4CCCCC4)cc2)C3)CC1 [Example 32, 1-[10-(4-Cyclohexyl-benzoyl)-10,11-dihydro-5H-pyrrolo[2,1-c][1,4]benzodiazepin-3-yl]-2-(4-methyl-1-piperazin-1-yl)-1,2-ethane-1,2-dione]	–	56
CN1CCCC1CCNC(=O)c1ccc2n1Cc1ccccc1N(C(=O)c1ccc(C3CCCCC3)cc1)C2 (stereo not shown) [Example 38, 10-(4-Cyclohexyl-benzoyl)-N-[2-(1-methyl-2-pyrrolidinyl)ethyl]-10,11-dihydro-5H-pyrrolo[2,1-c][1,4]benzodiazepine-3-carboxamide]	31	–
CN(Cc1cccnc1)C(=O)c1ccc2n1Cc1ccccc1N(C(=O)c1ccc(C3CCCCC3)cc1)C2 [Example 57, 10-(4-Cyclohexyl-benzoyl)-N-methyl-N-(3-pyridinylmethyl)-10,11-dihydro-5H-pyrrolo[2,1-c][1,4]benzodiazepine-3-carboxamide]	-5	–
C=CCN1CCN(C(=O)c2ccc3n2Cc2ccccc2N(C(=O)c2ccc(C4CCCCC4)cc2)C3)CC1 [Example 43, (4-Allyl-1-piperazinyl)[10-(4-cyclohexyl-benzoyl)-10,11-dihydro-5H-pyrrolo[2,1-c][1,4]benzodiazepin-3-yl]methanone]	1	–
CC(C)N1CCN(C(=O)c2ccc3n2Cc2ccccc2N(C(=O)c2ccc(C4CCCCC4)cc2)C3)CC1 [Example 44, [10-(4-Cyclohexyl-benzoyl)-10,11-dihydro-5H-pyrrolo[2,1-c][1,4]benzodiazepin-3-yl](4-isopropyl-1-piperazinyl)methanone]	1	–
O=C(NCCN1CCCCC1)c1ccc2n1Cc1ccccc1N(C(=O)c1ccc(C3CCCCC3)cc1)C2 [Example 37, 10-(4-Cyclohexyl-benzoyl)-N-[2-(1-piperidinyl)ethyl]-10,11-dihydro-5H-pyrrolo[2,1-c][1,4]benzodiazepine-3-carboxamide]	23	–
CN(C)[C@@H]1CCN(C(=O)c2ccc3n2Cc2ccccc2N(C(=O)c2ccc(C4CCCCC4)cc2)C3)C1 [Example 47, [10-(4-Cyclohexyl-benzoyl)-10,11-dihydro-5H-pyrrolo[2,1-C][1,4]benzodiazepin-3-yl][(3R)-3-(dimethylamino)pyrrolidinyl]methanone]	–	28

Same assay, conditions: [3H]Manning ligand, value in parentheses

Structure (SMILES)	IC50 [µM]
O=C(c1ccc2n1Cc1ccccc1N(C(=O)c1ccc(C3CCCCC3)cc1)C2)N1CCC(N2CCCCC2)CC1 [Example 26, [1,4′]Bipiperidinyl-1′-yl-[10-(4-cyclohexyl-benzoyl)-10,11-dihydro-5H-pyrrolo[2,1-c][1,4]benzodiazepin-3-yl]-methanone]	0.2
NNC(=O)c1ccc2n1Cc1ccccc1N(C(=O)c1ccc(C3CCCCC3)cc1)C2 [Example 8, 10-(4-Cyclohexy-benzoyl)-10,11-dihydro-5H-pyrrolo[2,1-c][1,4]benzodiazepine-3-carboxylic acid hydrazide]	0.543
